# Results as given in US20240124410A1, “SMALL MOLECULES AND THEIR USE AS MALT1 INHIBITORS” (University of Pittsburgh - Of the Commonwealth System of …, priority 2021, published 2024).
# Target: T1, BCL10-MALT1 interaction (Homo sapiens, UniProt Q9UDY8)
# T1 sequence (Q9UDY8 1-824): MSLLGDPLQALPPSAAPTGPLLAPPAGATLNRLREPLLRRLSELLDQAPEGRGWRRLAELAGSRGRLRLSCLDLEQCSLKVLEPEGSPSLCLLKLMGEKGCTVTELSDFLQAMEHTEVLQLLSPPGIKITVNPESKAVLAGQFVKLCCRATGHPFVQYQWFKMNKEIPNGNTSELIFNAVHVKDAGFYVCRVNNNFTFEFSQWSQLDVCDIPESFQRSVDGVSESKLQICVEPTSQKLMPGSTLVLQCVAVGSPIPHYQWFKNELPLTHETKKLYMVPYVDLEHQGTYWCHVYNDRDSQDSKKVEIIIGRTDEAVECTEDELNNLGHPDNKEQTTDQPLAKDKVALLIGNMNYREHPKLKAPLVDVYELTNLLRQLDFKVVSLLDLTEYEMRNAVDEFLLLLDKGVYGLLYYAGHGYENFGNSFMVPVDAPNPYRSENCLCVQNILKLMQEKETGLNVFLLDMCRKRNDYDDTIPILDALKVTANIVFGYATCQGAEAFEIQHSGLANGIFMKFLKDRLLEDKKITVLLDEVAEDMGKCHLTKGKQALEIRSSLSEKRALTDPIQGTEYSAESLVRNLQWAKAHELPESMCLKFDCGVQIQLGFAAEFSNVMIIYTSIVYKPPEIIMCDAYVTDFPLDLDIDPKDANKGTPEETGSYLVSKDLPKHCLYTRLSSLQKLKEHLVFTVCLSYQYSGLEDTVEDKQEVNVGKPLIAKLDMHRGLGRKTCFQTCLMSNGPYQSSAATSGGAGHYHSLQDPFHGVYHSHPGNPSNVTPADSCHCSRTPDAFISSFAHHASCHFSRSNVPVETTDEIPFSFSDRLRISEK
# Test: ELISA-based protein-protein interaction assay, BCL10-MALT1 (FIG. 2F, 2H); His-tagged recombinant human full-length Bcl10 on plate, GST-tagged recombinant human full-length MALT1
# Design: GST-tagged recombinant human full-length MALT1 protein; GST; purchased Novus Biologicals H00010892-P01
# Settings: compound preincubated with 100 ng GST-MALT1 for 1 hour, 100 ng His-Bcl10 on plate, one-site binding fit, read-out: IC50 for inhibition of BCL10-MALT1 binding (ELISA)
# Source text: FIG. 2. In silico screening identifies small molecules targeting the predicted BCL10-binding groove within MALT1 (Ig1-2). (A) We performed a structure-guided in silico screen of 3 million compounds, using the LibDock program from Discovery Studio 3.5, in order to identify candidate molecules that could potentially fit within the identified groove in the MALT1 Ig1-2 domain. Lipinski's rule of five filters (LipinskiRo5) were applied to enrich for compounds with drug-like properties. Potential compound hits were then screened for their ability to disrupt the MALT1-BCL10 interaction using SPR analysis. 9 candidate compounds were then subjected to a second, ELISA-based MALT1-BCL10 interaction assay, identifying 2 compounds that could disrupt the interaction in both SPR and ELISA assays. M1i-124 and M1i-1255 are the two compounds identified to disrupt the BCL10-MALT1 interaction. M1i-124 became our lead compound and M1i-1255 is partially characterized in FIG. 8. (B) Structure of M1i-124. (C) Model of M1i-124 docked onto the MALT1 Ig1-2 domain groove (PDB 3K0W). […] (E) SPR analysis was performed to determine the IC50 for M1i-124 disruption of the BCL10-MALT1 interaction in a dose-response assay. (F) ELISA analysis confirmed that M1i-124 disrupts the interaction between BCL10 and MALT1 in dose dependent fashion (left). […] Circles highlight sites that differ from parent compound, M1i-124. […]
structure (smiles),measurement,value
COc1ccc(CNS(=O)(=O)c2ccc(Cc3ccc(S(=O)(=O)NCc4ccc(OC)cc4)cc3)cc2)cc1 [M1i-124d1],IC50,8.45 µM
